# According to US6504058B1 (priority 1997, dated 2003):
# Experiments:
# Botrytis cinerea = test: Test E: gray mold, preventive spray on cucumber seedlings, disease rating; type: in vivo, Botrytis cinerea (on cucumber seedlings); details: 200 ppm test suspension sprayed to run-off (equivalent to 500 g/ha) on cucumber seedlings; 100 = 100% disease control, 0 = no control; # = significant activity
# Method in brief: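 Cucumber seedlings sprayed to run-off with 200 ppm suspension (equivalent to 500 g/ha), inoculated next day with B. cinerea spores. Kept 48 h saturated at 20 °C, then 5 days in growth chamber at 20 °C; disease control rated 0–100 relative to controls.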
# [1] = test system: Erysiphe graminis f. sp. tritici; test: Test A: wheat powdery mildew, preventive spray on wheat seedlings, disease rating; type: in vivo, Erysiphe graminis f. sp. tritici (on wheat seedlings); details: 200 ppm test suspension sprayed to run-off (equivalent to 500 g/ha) on wheat seedlings; 100 = 100% disease control, 0 = no control; # = significant activity
# Method in brief: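 Compounds at 200 ppm (acetone 3%, 250 ppm Trem 014 in water; equivalent to 500 g/ha) sprayed to run-off on wheat seedlings, inoculated with spore dust the following day. Plants held at 20° C. for 7 days, then rated 0–100% disease control relative to untreated controls.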
# Phytophthora infestans = type: in vivo, Phytophthora infestans (on tomato seedlings); details: 200 ppm test suspension sprayed to run-off (equivalent to 500 g/ha) on tomato seedlings; 100 = 100% disease control, 0 = no control; # = significant activity
# Puccinia recondita = test: Test B: wheat leaf rust, preventive spray on wheat seedlings, disease rating; type: in vivo, Puccinia recondita (on wheat seedlings); details: 200 ppm test suspension sprayed to run-off (equivalent to 500 g/ha) on wheat seedlings; 100 = 100% disease control, 0 = no control; # = significant activity
# Method in brief: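 Wheat seedlings were sprayed to run-off with 200 ppm suspensions (≈500 g/ha; 3% acetone, 250 ppm Trem 014) and inoculated with Puccinia recondita spores the next day. Plants were held 24 h saturated at 20 °C, then 6 days at 20 °C. Disease control was rated 0-100 relative to untreated controls.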
# Pyricularia oryzae = type: in vivo, Pyricularia oryzae (on rice seedlings); details: 200 ppm test suspension sprayed to run-off (equivalent to 500 g/ha) on rice seedlings; 100 = 100% disease control, 0 = no control; # = significant activity
smiles,measurement,setting,value
CC(COc1cc(Cl)ccc1F)NC(=O)C1(C)CC(C)(Cl)C1 (stereo not drawn) [compound 51],Test E disease control rating (gray mold),Botrytis cinerea,0 (a rating of 0 indicates no disease control (relative to the controls))
same,Test A disease control rating (wheat powdery mildew),[1],83# %
same,Test D disease control rating (potato and tomato late blight),Phytophthora infestans,0 (a rating of 0 indicates no disease control (relative to the controls))
same,Test B disease control rating (wheat leaf rust),Puccinia recondita,0 (a rating of 0 indicates no disease control (relative to the controls))
same,Test C disease control rating (rice blast),Pyricularia oryzae,100# (a rating of 100 indicates 100% disease control)
CC(NC(=O)C1(C)CC(C)(Cl)C1)c1ccc(Cl)cc1Cl (stereo not drawn) [compound 71],Test E disease control rating (gray mold),Botrytis cinerea,0 (a rating of 0 indicates no disease control (relative to the controls))
same,Test A disease control rating (wheat powdery mildew),[1],61%
same,Test D disease control rating (potato and tomato late blight),Phytophthora infestans,100# (a rating of 100 indicates 100% disease control)
same,Test B disease control rating (wheat leaf rust),Puccinia recondita,0 (a rating of 0 indicates no disease control (relative to the controls))
same,Test C disease control rating (rice blast),Pyricularia oryzae,100# (a rating of 100 indicates 100% disease control)
CC(COc1ccc(Cl)cc1C#N)NC(=O)C1(C)CC(C)(Cl)C1 (stereo not drawn) [compound 42],Test E disease control rating (gray mold),Botrytis cinerea,19%
same,Test A disease control rating (wheat powdery mildew),[1],63%
same,Test D disease control rating (potato and tomato late blight),Phytophthora infestans,43%
same,Test B disease control rating (wheat leaf rust),Puccinia recondita,0 (a rating of 0 indicates no disease control (relative to the controls))
same,Test C disease control rating (rice blast),Pyricularia oryzae,0 (a rating of 0 indicates no disease control (relative to the controls))
CC(NC(=O)C1(C(F)(F)F)CC(C)(Cl)C1)c1ccc(Cl)cc1Cl (stereo not drawn) [compound 8],Test E disease control rating (gray mold),Botrytis cinerea,0 (a rating of 0 indicates no disease control (relative to the controls))
same,Test A disease control rating (wheat powdery mildew),[1],0 (a rating of 0 indicates no disease control (relative to the controls))
same,Test D disease control rating (potato and tomato late blight),Phytophthora infestans,24%
same,Test B disease control rating (wheat leaf rust),Puccinia recondita,0 (a rating of 0 indicates no disease control (relative to the controls))
same,Test C disease control rating (rice blast),Pyricularia oryzae,100# (a rating of 100 indicates 100% disease control)
CC(COc1ccc(Cl)cc1C#N)NC(=O)C1(C)CC(C)(Cl)C1 (stereo not drawn) [compound 41],Test E disease control rating (gray mold),Botrytis cinerea,19%
same,Test A disease control rating (wheat powdery mildew),[1],0 (a rating of 0 indicates no disease control (relative to the controls))
same,Test D disease control rating (potato and tomato late blight),Phytophthora infestans,85# %
same,Test B disease control rating (wheat leaf rust),Puccinia recondita,0 (a rating of 0 indicates no disease control (relative to the controls))
same,Test C disease control rating (rice blast),Pyricularia oryzae,0 (a rating of 0 indicates no disease control (relative to the controls))
CC(NC(=O)C1CC(C)(Cl)C1)C(Oc1cc(F)ccc1F)c1ccccc1 (stereo not drawn) [compound 31],Test E disease control rating (gray mold),Botrytis cinerea,0 (a rating of 0 indicates no disease control (relative to the controls))
same,Test A disease control rating (wheat powdery mildew),[1],0 (a rating of 0 indicates no disease control (relative to the controls))
same,Test D disease control rating (potato and tomato late blight),Phytophthora infestans,0 (a rating of 0 indicates no disease control (relative to the controls))
same,Test B disease control rating (wheat leaf rust),Puccinia recondita,0 (a rating of 0 indicates no disease control (relative to the controls))
same,Test C disease control rating (rice blast),Pyricularia oryzae,90# %
CC(NC(=O)C1CC(C)(Cl)C1)c1ccc(Br)cc1 (stereo not drawn) [compound 10],Test E disease control rating (gray mold),Botrytis cinerea,0 (a rating of 0 indicates no disease control (relative to the controls))
same,Test A disease control rating (wheat powdery mildew),[1],74%
same,Test D disease control rating (potato and tomato late blight),Phytophthora infestans,42%
same,Test B disease control rating (wheat leaf rust),Puccinia recondita,0 (a rating of 0 indicates no disease control (relative to the controls))
same,Test C disease control rating (rice blast),Pyricularia oryzae,53%
CC(NC(=O)C1(C)CC(C)(Br)C1)c1ccc(Br)cc1 (stereo not drawn) [compound 17],Test E disease control rating (gray mold),Botrytis cinerea,0 (a rating of 0 indicates no disease control (relative to the controls))
same,Test A disease control rating (wheat powdery mildew),[1],0 (a rating of 0 indicates no disease control (relative to the controls))
same,Test D disease control rating (potato and tomato late blight),Phytophthora infestans,0 (a rating of 0 indicates no disease control (relative to the controls))
same,Test B disease control rating (wheat leaf rust),Puccinia recondita,0 (a rating of 0 indicates no disease control (relative to the controls))
same,Test C disease control rating (rice blast),Pyricularia oryzae,74%
CC(COc1cc(F)ccc1Cl)NC(=O)C1(C)CC(C)(Br)C1 (stereo not drawn) [compound 56],Test E disease control rating (gray mold),Botrytis cinerea,0 (a rating of 0 indicates no disease control (relative to the controls))
same,Test A disease control rating (wheat powdery mildew),[1],99# %
same,Test D disease control rating (potato and tomato late blight),Phytophthora infestans,0 (a rating of 0 indicates no disease control (relative to the controls))
same,Test B disease control rating (wheat leaf rust),Puccinia recondita,0 (a rating of 0 indicates no disease control (relative to the controls))
same,Test C disease control rating (rice blast),Pyricularia oryzae,100# (a rating of 100 indicates 100% disease control)
CC(NC(=O)C1(Cl)CC(Cl)(Cl)C1)c1ccc(Br)cc1 (stereo not drawn) [compound 12],Test E disease control rating (gray mold),Botrytis cinerea,0 (a rating of 0 indicates no disease control (relative to the controls))
same,Test A disease control rating (wheat powdery mildew),[1],99%
same,Test D disease control rating (potato and tomato late blight),Phytophthora infestans,11%
same,Test B disease control rating (wheat leaf rust),Puccinia recondita,0 (a rating of 0 indicates no disease control (relative to the controls))
same,Test C disease control rating (rice blast),Pyricularia oryzae,100# (a rating of 100 indicates 100% disease control)
CC(COc1cc(Cl)ccc1F)NC(=O)C1(C)CC(C)(Cl)C1 (stereo not drawn) [compound 52],Test E disease control rating (gray mold),Botrytis cinerea,0 (a rating of 0 indicates no disease control (relative to the controls))
same,Test A disease control rating (wheat powdery mildew),[1],83# %
same,Test D disease control rating (potato and tomato late blight),Phytophthora infestans,0 (a rating of 0 indicates no disease control (relative to the controls))
same,Test B disease control rating (wheat leaf rust),Puccinia recondita,0 (a rating of 0 indicates no disease control (relative to the controls))
same,Test C disease control rating (rice blast),Pyricularia oryzae,100# (a rating of 100 indicates 100% disease control)
CC(NC(=O)C1(C)CC(C)(Br)C1)c1ccc(Br)cc1 (stereo not drawn) [compound 18],Test E disease control rating (gray mold),Botrytis cinerea,0 (a rating of 0 indicates no disease control (relative to the controls))
same,Test A disease control rating (wheat powdery mildew),[1],0 (a rating of 0 indicates no disease control (relative to the controls))
same,Test D disease control rating (potato and tomato late blight),Phytophthora infestans,0 (a rating of 0 indicates no disease control (relative to the controls))
same,Test B disease control rating (wheat leaf rust),Puccinia recondita,0 (a rating of 0 indicates no disease control (relative to the controls))
same,Test C disease control rating (rice blast),Pyricularia oryzae,99# %
CC(NC(=O)C1(C)CC(F)(F)C1)c1ccc(Br)cc1 (stereo not drawn) [compound 67],Test E disease control rating (gray mold),Botrytis cinerea,19%
same,Test A disease control rating (wheat powdery mildew),[1],63%
same,Test D disease control rating (potato and tomato late blight),Phytophthora infestans,43%
same,Test B disease control rating (wheat leaf rust),Puccinia recondita,0 (a rating of 0 indicates no disease control (relative to the controls))
same,Test C disease control rating (rice blast),Pyricularia oryzae,99# %
CC(NC(=O)C1(C)CC(C)(Br)C1)c1ccc(Cl)cc1Cl (stereo not drawn) [compound 69],Test E disease control rating (gray mold),Botrytis cinerea,0 (a rating of 0 indicates no disease control (relative to the controls))
same,Test A disease control rating (wheat powdery mildew),[1],0 (a rating of 0 indicates no disease control (relative to the controls))
same,Test D disease control rating (potato and tomato late blight),Phytophthora infestans,24%
same,Test B disease control rating (wheat leaf rust),Puccinia recondita,0 (a rating of 0 indicates no disease control (relative to the controls))
same,Test C disease control rating (rice blast),Pyricularia oryzae,100# (a rating of 100 indicates 100% disease control)
CC(NC(=O)C1CC(C)(Cl)C1)C(Oc1cc(F)ccc1C#N)c1ccccc1 (stereo not drawn) [compound 33],Test E disease control rating (gray mold),Botrytis cinerea,0 (a rating of 0 indicates no disease control (relative to the controls))
same,Test A disease control rating (wheat powdery mildew),[1],0 (a rating of 0 indicates no disease control (relative to the controls))
same,Test D disease control rating (potato and tomato late blight),Phytophthora infestans,0 (a rating of 0 indicates no disease control (relative to the controls))
same,Test B disease control rating (wheat leaf rust),Puccinia recondita,0 (a rating of 0 indicates no disease control (relative to the controls))
same,Test C disease control rating (rice blast),Pyricularia oryzae,52%
